In patent EP3046573B1, “AMYLIN ANALOGUES” (Zealand Pharma A/S, priority 2013, dated 2015):
Like-named read-outs stand apart in the source and are kept apart here. Numbered stars: 1 amine (or outer) side, 2 acyl side, 3 side chain; on linkers, the order of the positions; unused ones are H or OH. Bridge positions count the residues as written; N and C are the ends. Square brackets hold non-standard residues; d marks the D form. Peptide text beside a SMILES is read from it. * marks the point of attachment. C20 diacid = O=C(O)CCCCCCCCCCCCCCCCCCC(=O)*; γGlu = O=C(O)[C@H](CCC(=O)[*:2])N[*:1]; Stearoyl = CCCCCCCCCCCCCCCCCC(=O)*; Palmitoyl = CCCCCCCCCCCCCCCC(=O)*; NMeI = CC[C@H](C)[C@H](NC)C(=O)O; Sar = CNCC(=O)O

Experiments:
[1] = target: T1, human calcitonin receptor (hCTR2) (Homo sapiens, UniProt P30988); experiment: hCTR2 assay: induction of cAMP (AlphaScreen cAMP Assay kit) in COS7 cells expressing hCTR2; format: cell-based
T1 construct: expressed in transfected cells
T1 sequence (P30988 25-474): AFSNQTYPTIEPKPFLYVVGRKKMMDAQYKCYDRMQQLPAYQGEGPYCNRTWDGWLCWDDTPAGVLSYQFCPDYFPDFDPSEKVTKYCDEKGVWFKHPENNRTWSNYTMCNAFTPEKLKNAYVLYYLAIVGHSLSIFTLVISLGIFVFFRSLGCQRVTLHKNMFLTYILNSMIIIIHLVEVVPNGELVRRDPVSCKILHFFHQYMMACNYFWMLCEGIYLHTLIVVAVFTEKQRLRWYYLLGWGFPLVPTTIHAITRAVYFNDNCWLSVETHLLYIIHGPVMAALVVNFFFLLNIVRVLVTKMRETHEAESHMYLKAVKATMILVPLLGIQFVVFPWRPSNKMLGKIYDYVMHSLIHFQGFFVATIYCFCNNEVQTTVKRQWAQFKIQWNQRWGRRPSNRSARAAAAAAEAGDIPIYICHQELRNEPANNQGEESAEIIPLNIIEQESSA
In short: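 Peptide-induced cAMP in hCTR2-expressing COS7 cells, 15 min at 37° C with phosphodiesterase inhibitor IBMX (100 µM), detected by AlphaScreen; potency from 4PL curves.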

[2] = Solubility assessment (turbidity absorbance at 325 nm); format: physicochemical; conditions: stock 2 mg/ml diluted 1:1, ambient temperature (typically 25°C), n=1; for Solubility, Acetate buffer pH 4: 100 mM acetate buffer pH 4.0; for Solubility, Acetate buffer pH 5: 100 mM acetate buffer pH 5.0; for Solubility, Histidine buffer pH 6: 100 mM histidine buffer pH 6.0; for Solubility, Histidine buffer pH 7: 100 mM histidine buffer pH 7.0; for Solubility, Phosphate buffer pH 6: 100 mM phosphate buffer pH 6.0; for Solubility, Phosphate buffer pH 7: 100 mM phosphate buffer pH 7.0; for Solubility, Phosphate buffer pH 7.5: 100 mM phosphate buffer pH7.5
In short: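 Turbidimetric screen across pH 4.0–7.5 in 100 mM acetate, histidine and phosphate buffers. A 2 mg/ml peptide stock (pH 2.5) was diluted 1:1 into each, then A325 measured at ambient temperature; values ≤ 0.02 AU denoted solubility of 1 mg/ml or more.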

Row | SMILES | EC50 [1] | Solubility, Acetate buffer pH 4 [2] | Solubility, Acetate buffer pH 5 [2] | Solubility, Histidine buffer pH 6 [2] | Solubility, Histidine buffer pH 7 [2] | Solubility, Phosphate buffer pH 6 [2] | Solubility, Phosphate buffer pH 7 [2] | Solubility, Phosphate buffer pH 7.5 [2] | EC50 ([1]; cAMP induction in COS7 cells expressing hCTR2, average of a minimum of 3 determinations, read-out: hCTR2 EC50)
1 | CCCCCCCCCCCCCCCC(=O)N[C@@H](CCC(=O)N[C@@H](CCCNC(=N)N)C(=O)N[C@H]1CSSC[C@@H](C(=O)N[C@@H](C)C(=O)N[C@H](C(=O)N[C@@H](CCC(N)=O)C(=O)N[C@@H](CCCNC(=N)N)C(=O)N[C@@H](CC(C)C)C(=O)N[C@@H](C)C(=O)N[C@@H](CCC(=O)O)C(=O)N[C@@H](Cc2ccccc2)C(=O)N[C@@H](CC(C)C)C(=O)N[C@@H](Cc2c[nH]cn2)C(=O)N[C@@H](CCCNC(=N)N)C(=O)N[C@@H](CO)C(=O)N[C@@H](CO)C(=O)N[C@@H](CC(N)=O)C(=O)N[C@@H](CC(N)=O)C(=O)N[C@@H](Cc2ccccc2)C(=O)N(C)CC(=O)N[C@@H](C)C(=O)N(C)[C@H](C(=O)N[C@@H](CC(C)C)C(=O)N[C@@H](CO)C(=O)N[C@@H](CO)C(=O)N[C@H](C(=O)N[C@@H](CC(N)=O)C(=O)N[C@H](C(=O)NCC(=O)N[C@@H](CO)C(=O)N[C@@H](CC(N)=O)C(=O)N[C@H](C(=O)N2CCC[C@H]2C(N)=O)[C@@H](C)O)C(C)C)[C@@H](C)O)[C@@H](C)CC)[C@@H](C)O)NC(=O)[C@H]([C@@H](C)O)NC(=O)[C@H](C)NC(=O)[C@H]([C@@H](C)O)NC(=O)[C@H](CC(N)=O)NC1=O)C(=O)O [Compound 92, [Hexadecanoyl]-isoGlu-RC()NTATC()ATQRLAEFLHRSSNNF-Gly(Me)-A-Ile(Me)-LSSTNVGSNTP-NH2] ({Palmitoyl-γGlu}-RCNTATCATQRLAEFLHRSSNNF[Sar]A[NMeI]LSSTNVGSNTP-NH2; disulfide 2-7) | 0.054 nM | SS (SS indicates solubility ≥ 1mg/ml) | SS (SS indicates solubility ≥ 1mg/ml) | SS (SS indicates solubility ≥ 1mg/ml) | SS (SS indicates solubility ≥ 1mg/ml) | SS (SS indicates solubility ≥ 1mg/ml) | SS (SS indicates solubility ≥ 1mg/ml) | SS (SS indicates solubility ≥ 1mg/ml) | 
2 | CCCCCCCCCCCCCCCCCC(=O)N[C@@H](CCC(=O)N[C@@H](CCCNC(=N)N)C(=O)N[C@H]1CSSC[C@@H](C(=O)N[C@@H](C)C(=O)N[C@H](C(=O)N[C@@H](CCC(N)=O)C(=O)N[C@@H](CCCNC(=N)N)C(=O)N[C@@H](CC(C)C)C(=O)N[C@@H](C)C(=O)N[C@@H](CCC(=O)O)C(=O)N[C@@H](Cc2ccccc2)C(=O)N[C@@H](CC(C)C)C(=O)N[C@@H](Cc2c[nH]cn2)C(=O)N[C@@H](CCCNC(=N)N)C(=O)N[C@@H](CO)C(=O)N[C@@H](CO)C(=O)N[C@@H](CC(N)=O)C(=O)N[C@@H](CC(N)=O)C(=O)N[C@@H](Cc2ccccc2)C(=O)N(C)CC(=O)N[C@@H](C)C(=O)N(C)[C@H](C(=O)N[C@@H](CC(C)C)C(=O)N[C@@H](CO)C(=O)N[C@@H](CO)C(=O)N[C@H](C(=O)N[C@@H](CC(N)=O)C(=O)N[C@H](C(=O)NCC(=O)N[C@@H](CO)C(=O)N[C@@H](CC(N)=O)C(=O)N[C@H](C(=O)N2CCC[C@H]2C(N)=O)[C@@H](C)O)C(C)C)[C@@H](C)O)[C@@H](C)CC)[C@@H](C)O)NC(=O)[C@H]([C@@H](C)O)NC(=O)[C@H](C)NC(=O)[C@H]([C@@H](C)O)NC(=O)[C@H](CC(N)=O)NC1=O)C(=O)O [Compound 93, [Octadecanoyl]-isoGlu-RC()NTATC()ATQRLAEFLHRSSNNF-Gly(Me)-A-Ile(Me)-LSSTNVGSNTP-NH2] ({Stearoyl-γGlu}-RCNTATCATQRLAEFLHRSSNNF[Sar]A[NMeI]LSSTNVGSNTP-NH2; disulfide 2-7) | 0.064 nM | SS (SS indicates solubility ≥ 1mg/ml) | SS (SS indicates solubility ≥ 1mg/ml) | SS (SS indicates solubility ≥ 1mg/ml) | SS (SS indicates solubility ≥ 1mg/ml) | SS (SS indicates solubility ≥ 1mg/ml) | SS (SS indicates solubility ≥ 1mg/ml) | SS (SS indicates solubility ≥ 1mg/ml) | 
3 | CC[C@H](C)[C@@H](C(=O)N[C@@H](CC(C)C)C(=O)N[C@@H](CO)C(=O)N[C@@H](CO)C(=O)N[C@H](C(=O)N[C@@H](CCC(=O)O)C(=O)N[C@H](C(=O)NCC(=O)N[C@@H](CO)C(=O)N[C@@H](CCC(=O)O)C(=O)N[C@H](C(=O)N1CCC[C@H]1C(N)=O)[C@@H](C)O)C(C)C)[C@@H](C)O)N(C)C(=O)CN(C)C(=O)[C@H](Cc1ccccc1)NC(=O)[C@H](CO)NC(=O)[C@H](CO)NC(=O)[C@H](CCCNC(=N)N)NC(=O)[C@H](Cc1c[nH]cn1)NC(=O)[C@H](CC(C)C)NC(=O)[C@H](Cc1ccccc1)NC(=O)[C@H](CCC(=O)O)NC(=O)[C@H](C)NC(=O)[C@H](CC(C)C)NC(=O)[C@H](CCCNC(=N)N)NC(=O)[C@H](CCC(N)=O)NC(=O)[C@@H](NC(=O)[C@H](C)NC(=O)[C@@H]1CSSC[C@H](NC(=O)[C@H](CCCNC(=N)N)NC(=O)CC[C@H](NC(=O)CCCCCCCCCCCCCCCCCCC(=O)O)C(=O)O)C(=O)N[C@@H](CC(N)=O)C(=O)N[C@@H]([C@@H](C)O)C(=O)N[C@@H](C)C(=O)N[C@@H]([C@@H](C)O)C(=O)N1)[C@@H](C)O [Compound 95, [19CD]-isoGlu-RC()NTATC()ATQRLAEFLHRSSF-Gly(Me)-Ile(Me)-LSSTEVGSETP-NH2] ({C20 diacid-γGlu}-RCNTATCATQRLAEFLHRSSF[Sar][NMeI]LSSTEVGSETP-NH2; disulfide 2-7) |  | SS (SS indicates solubility ≥ 1mg/ml) | SS (SS indicates solubility ≥ 1mg/ml) | SS (SS indicates solubility ≥ 1mg/ml) | SS (SS indicates solubility ≥ 1mg/ml) | SS (SS indicates solubility ≥ 1mg/ml) | SS (SS indicates solubility ≥ 1mg/ml) | SS (SS indicates solubility ≥ 1mg/ml) | 0.082 nM
4 | CC[C@H](C)[C@@H](C(=O)N[C@@H](CC(C)C)C(=O)N[C@@H](CO)C(=O)N[C@@H](CO)C(=O)N[C@H](C(=O)N[C@@H](CC(N)=O)C(=O)N[C@H](C(=O)NCC(=O)N[C@@H](CO)C(=O)N[C@@H](CC(N)=O)C(=O)N[C@H](C(=O)N[C@@H](Cc1ccc(O)cc1)C(N)=O)[C@@H](C)O)C(C)C)[C@@H](C)O)N(C)C(=O)[C@H](C)NC(=O)CN(C)C(=O)[C@H](Cc1ccccc1)NC(=O)[C@H](CC(N)=O)NC(=O)[C@H](CC(N)=O)NC(=O)[C@H](CO)NC(=O)[C@H](CO)NC(=O)[C@H](CCCNC(=N)N)NC(=O)[C@H](Cc1c[nH]cn1)NC(=O)[C@H](CC(C)C)NC(=O)[C@H](Cc1ccccc1)NC(=O)[C@H](CCC(=O)O)NC(=O)[C@H](C)NC(=O)[C@H](CC(C)C)NC(=O)[C@H](CCCNC(=N)N)NC(=O)[C@H](CCC(N)=O)NC(=O)[C@@H](NC(=O)[C@H](C)NC(=O)[C@@H]1CSSC[C@H](NC(=O)[C@H](CCCNC(=N)N)NC(=O)CC[C@H](NC(=O)CCCCCCCCCCCCCCCCCCC(=O)O)C(=O)O)C(=O)N[C@@H](CC(N)=O)C(=O)N[C@@H]([C@@H](C)O)C(=O)N[C@@H](C)C(=O)N[C@@H]([C@@H](C)O)C(=O)N1)[C@@H](C)O [Compound 156, [19CD]-isoGlu-RC()NTATC()ATQRLAEFLHRSSNNF-Gly(Me)-A-Ile(Me)-LSSTNVGSNTY-NH2] ({C20 diacid-γGlu}-RCNTATCATQRLAEFLHRSSNNF[Sar]A[NMeI]LSSTNVGSNTY-NH2; disulfide 2-7) | 0.54 nM | SS (SS indicates solubility ≥ 1mg/ml) | SS (SS indicates solubility ≥ 1mg/ml) | SS (SS indicates solubility ≥ 1mg/ml) | II (II indicates solubility ≤ 1 mg/ml) | SS (SS indicates solubility ≥ 1mg/ml) | II (II indicates solubility ≤ 1 mg/ml) | II (II indicates solubility ≤ 1 mg/ml) | 
